# Test results: article PMC11868595, “Safety, pharmacokinetics and efficacy of HA121-28 in patients with advanced solid tumors and RET fusion-positive non-small-cell lung cancer: a multicenter, open-label, single-arm phase 1/2 trial” (Signal Transduction and Targeted Therapy, 2025)
# Read-outs that look alike come from different tables or passages of the source. Marks after values point to notes of the source that are not given here.
# Experiments:
# [1] = system: MDA-MB-231 cells; test: Tumor cell proliferation in vitro; assay type: cell-based
# [2] = target: BLK (Homo sapiens, UniProt P51451); test: Tyrosine kinase inhibition; assay type: biochemical
# [3] = Plasma protein binding; assay type: in vitro ADME; conditions: dogs
# [4] = target: RON (Homo sapiens, UniProt Q04912); test: Tyrosine kinase inhibition; assay type: biochemical
# [5] = Metabolites in plasma; conditions: monkeys
# [6] = system: EGFR and ERK activation; test: EGF-stimulated activation of EGFR and ERK in A431 cells; assay type: cell-based, human; conditions: 10 ng/mL EGF, concentration-dependent
# [7] = target: FLT-1 (Homo sapiens, UniProt P17948); test: Tyrosine kinase inhibition; assay type: biochemical; conditions: read-out: IC50, FLT1
# [8] = system: ECA-109 cells; test: Tumor cell proliferation in vitro; assay type: cell-based, human
# [9] = 28-day repeated dose toxicity; assay type: in vivo, SD rats
# [10] = target: SRC (Homo sapiens, UniProt P12931); test: Tyrosine kinase inhibition; assay type: biochemical
# [11] = target: EGFR(T790M /L828R) (Homo sapiens, UniProt P00533, T790M); test: Tyrosine kinase inhibition; assay type: biochemical
# [12] = target: C-KIT (Homo sapiens, UniProt P10721); test: Tyrosine kinase inhibition; assay type: biochemical
# [13] = system: HCT116 cells; test: Tumor cell proliferation in vitro; assay type: cell-based
# [14] = target: EphA1 (Homo sapiens, UniProt P21709); test: Tyrosine kinase inhibition; assay type: biochemical
# [15] = system: human melanoma A375 tumors; test: A375 tumors in nude mice; assay type: in vivo
# [16] = Tissue distribution in rats; assay type: in vivo; conditions: for time of distribution peak: intragastric
# [17] = Single-dose toxicity; assay type: in vivo, Beagle dogs; conditions: single oral dose 500 and 1000 mg/kg
# Description: (§1) mg/kg. The maximum tolerated dose (MTD) was 500 mg/kg. Gastrointestinal, hepatic, and immune system toxicity may have contributed to the rat deaths.
# (§2) 2.2. Dose expansion phase
# (§3) […] To investigate the efficacy of HA121- 28 tablets in patients with advanced solid tumors.
# (§4) This study is a single- arm, open- label, dose-escalation, and dose-expansion phase 1 clinical studywith single and multiple dosing.
# [18] = system: VEGFR and ERK activation; test: VEGF165-stimulated activation of VEGFR and ERK in HUVEC cells; assay type: cell-based, human; conditions: 50 ng/mL VEGF165, concentration-dependent
# [19] = Safety pharmacology: respiratory function and neurological behavior; assay type: in vivo, rats; conditions: single oral dose 30, 100, and 300 mg/kg
# [20] = Single-dose toxicity; assay type: in vivo, SD rats; conditions: single oral gavage
# Description: as §1, §2, §3, §4
# [21] = system: FGFR1-3; assay type: biochemical
# [22] = target: LCK (Homo sapiens, UniProt P06239); test: Tyrosine kinase inhibition; assay type: biochemical
# [23] = Plasma protein binding; assay type: in vitro ADME; conditions: mice
# [24] = system: Q-T interval; conditions: single oral dose 5, 10, and 15 mg/kg
# [25] = target: FGFR4 (Homo sapiens, UniProt P22455); test: Tyrosine kinase inhibition; assay type: biochemical
# [26] = system: human gastric cancer SGC-7901 tumors; test: SGC-7901 tumors in nude mice; assay type: in vivo
# Source text: (§5) was higher than that of vandetanib .
# as §5
# Table S16. Efficacy of HA121-28 on human gastric cancer SGC-7901 tumors
# [27] = system: KYSE-150 cells; test: Tumor cell proliferation in vitro; assay type: cell-based, human
# [28] = system: HT29 cells; test: Tumor cell proliferation in vitro; assay type: cell-based
# [29] = Metabolites in plasma; conditions: dogs
# BLK, sequence (P51451 whole entry): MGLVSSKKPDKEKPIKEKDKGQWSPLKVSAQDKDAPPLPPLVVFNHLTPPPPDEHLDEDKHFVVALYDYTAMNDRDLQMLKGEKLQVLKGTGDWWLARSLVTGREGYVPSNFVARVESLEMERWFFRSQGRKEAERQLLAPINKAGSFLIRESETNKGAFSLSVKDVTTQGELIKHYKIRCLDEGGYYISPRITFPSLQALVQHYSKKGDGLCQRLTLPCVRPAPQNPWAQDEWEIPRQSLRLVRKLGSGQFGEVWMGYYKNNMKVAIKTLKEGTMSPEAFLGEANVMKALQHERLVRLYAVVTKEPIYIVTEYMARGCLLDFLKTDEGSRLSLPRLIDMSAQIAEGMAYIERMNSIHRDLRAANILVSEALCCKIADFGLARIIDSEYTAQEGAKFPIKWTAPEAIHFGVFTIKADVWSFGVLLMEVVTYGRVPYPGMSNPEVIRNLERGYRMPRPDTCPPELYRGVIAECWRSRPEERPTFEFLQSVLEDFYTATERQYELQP
# FLT-1, sequence (P17948 27-1338): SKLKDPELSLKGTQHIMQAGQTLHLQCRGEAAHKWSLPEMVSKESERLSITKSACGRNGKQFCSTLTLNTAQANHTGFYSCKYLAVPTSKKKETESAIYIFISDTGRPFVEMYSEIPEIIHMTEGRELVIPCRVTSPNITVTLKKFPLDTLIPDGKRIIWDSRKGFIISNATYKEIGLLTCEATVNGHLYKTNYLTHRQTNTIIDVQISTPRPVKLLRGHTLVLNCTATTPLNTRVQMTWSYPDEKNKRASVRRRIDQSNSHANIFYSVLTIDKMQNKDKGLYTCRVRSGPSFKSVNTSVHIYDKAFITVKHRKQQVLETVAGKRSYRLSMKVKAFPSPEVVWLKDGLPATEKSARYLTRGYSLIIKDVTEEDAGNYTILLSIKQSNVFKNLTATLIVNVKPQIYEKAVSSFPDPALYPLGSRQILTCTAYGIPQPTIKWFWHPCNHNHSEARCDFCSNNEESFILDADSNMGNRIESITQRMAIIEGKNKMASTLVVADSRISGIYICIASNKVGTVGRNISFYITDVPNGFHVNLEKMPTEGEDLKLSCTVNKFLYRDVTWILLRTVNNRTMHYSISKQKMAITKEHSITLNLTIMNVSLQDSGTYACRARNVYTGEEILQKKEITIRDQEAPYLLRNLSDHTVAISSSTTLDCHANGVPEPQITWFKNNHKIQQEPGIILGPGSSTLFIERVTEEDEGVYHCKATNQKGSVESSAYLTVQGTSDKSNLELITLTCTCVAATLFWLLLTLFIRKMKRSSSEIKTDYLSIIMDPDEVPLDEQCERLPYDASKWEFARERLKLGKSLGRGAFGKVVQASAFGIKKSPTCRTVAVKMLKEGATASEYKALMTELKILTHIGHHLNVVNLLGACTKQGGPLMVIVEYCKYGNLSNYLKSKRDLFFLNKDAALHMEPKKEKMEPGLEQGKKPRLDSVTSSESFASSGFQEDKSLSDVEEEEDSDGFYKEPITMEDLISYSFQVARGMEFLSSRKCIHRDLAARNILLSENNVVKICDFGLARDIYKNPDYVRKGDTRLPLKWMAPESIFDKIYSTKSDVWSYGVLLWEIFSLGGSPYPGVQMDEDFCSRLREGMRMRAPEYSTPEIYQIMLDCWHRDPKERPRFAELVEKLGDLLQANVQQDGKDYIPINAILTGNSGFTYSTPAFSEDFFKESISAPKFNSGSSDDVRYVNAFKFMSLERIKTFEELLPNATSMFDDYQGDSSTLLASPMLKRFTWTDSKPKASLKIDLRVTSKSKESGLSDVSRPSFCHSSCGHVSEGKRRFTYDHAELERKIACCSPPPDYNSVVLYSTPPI
# RON, sequence (Q04912 25-1400): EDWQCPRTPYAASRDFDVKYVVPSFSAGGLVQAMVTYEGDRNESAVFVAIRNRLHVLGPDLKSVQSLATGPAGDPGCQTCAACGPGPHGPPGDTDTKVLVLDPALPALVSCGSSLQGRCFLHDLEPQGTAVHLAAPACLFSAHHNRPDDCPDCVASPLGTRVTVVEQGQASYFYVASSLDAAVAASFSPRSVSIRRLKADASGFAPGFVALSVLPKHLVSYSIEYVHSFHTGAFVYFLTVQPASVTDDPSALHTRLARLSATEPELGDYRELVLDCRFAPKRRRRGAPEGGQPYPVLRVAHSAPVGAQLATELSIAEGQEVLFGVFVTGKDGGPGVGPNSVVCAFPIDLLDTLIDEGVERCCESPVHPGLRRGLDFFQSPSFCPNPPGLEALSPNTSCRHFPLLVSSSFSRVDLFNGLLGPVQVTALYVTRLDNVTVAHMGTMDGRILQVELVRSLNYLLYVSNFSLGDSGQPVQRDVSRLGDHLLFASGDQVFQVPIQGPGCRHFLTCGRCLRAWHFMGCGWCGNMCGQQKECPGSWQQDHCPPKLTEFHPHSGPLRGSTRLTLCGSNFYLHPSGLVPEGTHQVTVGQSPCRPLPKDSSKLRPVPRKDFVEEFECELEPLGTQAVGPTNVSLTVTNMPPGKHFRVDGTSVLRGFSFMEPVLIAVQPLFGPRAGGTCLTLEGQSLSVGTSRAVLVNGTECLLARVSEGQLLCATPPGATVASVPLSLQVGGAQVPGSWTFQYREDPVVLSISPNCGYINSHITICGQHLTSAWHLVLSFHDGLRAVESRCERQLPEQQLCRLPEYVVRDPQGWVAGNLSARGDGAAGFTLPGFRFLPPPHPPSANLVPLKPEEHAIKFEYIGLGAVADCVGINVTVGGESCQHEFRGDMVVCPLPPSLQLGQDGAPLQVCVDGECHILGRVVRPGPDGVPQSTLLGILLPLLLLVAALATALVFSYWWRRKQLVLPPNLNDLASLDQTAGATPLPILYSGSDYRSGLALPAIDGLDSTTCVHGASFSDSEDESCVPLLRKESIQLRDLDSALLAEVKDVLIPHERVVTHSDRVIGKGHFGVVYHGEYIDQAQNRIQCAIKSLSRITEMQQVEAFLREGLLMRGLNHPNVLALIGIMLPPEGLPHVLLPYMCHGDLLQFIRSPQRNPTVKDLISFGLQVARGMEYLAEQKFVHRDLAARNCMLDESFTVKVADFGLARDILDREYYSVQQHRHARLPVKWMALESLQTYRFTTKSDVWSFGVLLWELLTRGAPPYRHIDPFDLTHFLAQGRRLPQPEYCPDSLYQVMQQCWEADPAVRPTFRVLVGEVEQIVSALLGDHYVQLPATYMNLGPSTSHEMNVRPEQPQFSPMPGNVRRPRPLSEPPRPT
# SRC, sequence (P12931 whole entry): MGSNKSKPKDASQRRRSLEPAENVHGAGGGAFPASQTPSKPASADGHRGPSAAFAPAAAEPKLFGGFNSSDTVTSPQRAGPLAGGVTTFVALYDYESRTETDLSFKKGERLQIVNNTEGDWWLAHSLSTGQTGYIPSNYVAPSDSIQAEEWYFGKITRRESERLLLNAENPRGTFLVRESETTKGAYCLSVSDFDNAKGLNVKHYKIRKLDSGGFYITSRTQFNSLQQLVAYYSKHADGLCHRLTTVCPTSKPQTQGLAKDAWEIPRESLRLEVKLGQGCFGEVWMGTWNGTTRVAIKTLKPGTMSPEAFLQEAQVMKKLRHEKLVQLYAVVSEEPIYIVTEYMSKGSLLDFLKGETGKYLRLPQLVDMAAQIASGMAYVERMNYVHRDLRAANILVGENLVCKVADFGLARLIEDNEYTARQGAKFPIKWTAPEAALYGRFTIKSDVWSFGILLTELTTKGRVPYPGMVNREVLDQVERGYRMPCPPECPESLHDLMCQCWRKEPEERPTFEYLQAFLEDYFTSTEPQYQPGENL
# C-KIT, sequence (P10721 26-976): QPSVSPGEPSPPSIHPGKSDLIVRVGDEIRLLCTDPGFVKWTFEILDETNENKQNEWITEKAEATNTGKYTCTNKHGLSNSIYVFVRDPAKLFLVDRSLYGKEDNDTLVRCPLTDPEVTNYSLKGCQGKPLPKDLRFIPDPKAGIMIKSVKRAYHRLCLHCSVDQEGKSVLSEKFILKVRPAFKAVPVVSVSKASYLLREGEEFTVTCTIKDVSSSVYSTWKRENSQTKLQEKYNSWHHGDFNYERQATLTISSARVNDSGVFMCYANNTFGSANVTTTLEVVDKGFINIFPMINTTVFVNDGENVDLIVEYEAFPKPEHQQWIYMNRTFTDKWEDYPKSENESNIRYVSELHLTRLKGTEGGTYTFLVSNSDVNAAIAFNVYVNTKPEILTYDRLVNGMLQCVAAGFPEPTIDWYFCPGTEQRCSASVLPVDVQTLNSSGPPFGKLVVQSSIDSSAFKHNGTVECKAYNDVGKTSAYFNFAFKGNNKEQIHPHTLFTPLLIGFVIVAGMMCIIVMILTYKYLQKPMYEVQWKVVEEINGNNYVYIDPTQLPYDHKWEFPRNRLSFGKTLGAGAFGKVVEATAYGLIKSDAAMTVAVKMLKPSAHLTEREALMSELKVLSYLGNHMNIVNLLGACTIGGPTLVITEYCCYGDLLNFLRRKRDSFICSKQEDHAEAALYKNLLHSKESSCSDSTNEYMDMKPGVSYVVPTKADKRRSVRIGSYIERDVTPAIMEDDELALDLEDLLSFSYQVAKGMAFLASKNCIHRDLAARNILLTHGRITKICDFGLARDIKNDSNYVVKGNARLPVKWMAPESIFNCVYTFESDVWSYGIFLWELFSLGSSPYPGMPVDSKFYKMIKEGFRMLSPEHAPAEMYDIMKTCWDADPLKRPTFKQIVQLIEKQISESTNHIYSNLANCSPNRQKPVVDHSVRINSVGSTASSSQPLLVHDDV
smiles,measurement,setting,value
"COc1cc2c(Nc3ccc(Br)cc3F)ncnc2cc1OCCCCN(C)C.Cl.Cl [HA121-28, N-(4-bromo-2-fluorophenyl)-7-(4-(dimethylamino)butoxy)-6-methoxy quinazolin-4-amine dihydrochloride]",IC50,[1]; read-out: IC50,10000 to 100000 nM
same,IC50,"[1]; read-out: IC50, proliferation",10300 ± 2010 nM
same,IC50,[2],201 nM
same,plasma protein binding rate,[3],91.9±0.857%
same,IC50,[4],> 10000 nM
same,number of metabolites found in plasma,[5],4
same,activation of EGFR and downstream ERK,[6],significantly inhibited
same,IC50,[7],20.9 nM
same,IC50,[8],6663 ± 54.5 nM
same,no observed adverse effect level (NOAEL),"[9]; 28-day, SD rats",15 mg/kg
same,highest non-severely toxic dose (HNSTD),"[9]; oral gavage, four consecutive weeks",15 mg/kg
same,IC50,[10],65.8 nM
same,IC50,[11],166 nM
same,IC50,[12],> 10000 nM
same,IC50,[13],1420 ± 236 nM
same,IC50,[14],86.9 nM
same,RTV ±SD,[15]; 12.5 mg/kg,11.2±4.7
same,T/C,[15]; 12.5 mg/kg,54.6%
same,Terminal Tumor Volume,[15]; 12.5 mg/kg,1860.7±1044.5 mm^3
same,RTV ±SD,[15]; 25 mg/kg,8.7±5.9
same,T/C,[15]; 25 mg/kg,42.6%
same,Terminal Tumor Volume,[15]; 25 mg/kg,1329.3±1001.3* mm^3
same,RTV ±SD,[15]; 50 mg/kg,5.7±3.1
same,T/C,[15]; 50 mg/kg,27.7%
same,Terminal Tumor Volume,[15]; 50 mg/kg,879.7±405.8** mm^3
same,content at 72 h post-dose as fraction of distribution peak,[16]; adrenal glands,1/8
same,tissue AUC0-72h exposure relative to plasma,[16]; bone marrow,≈ 1.3 times plasma
same,tissue AUC0-72h exposure relative to plasma,"[16]; brain, adipose tissue, muscles",3~9 times plasma
same,tissue AUC0-72h exposure relative to plasma,"[16]; liver, kidneys, ovaries",≈ 100 times plasma
same,time of distribution peak,"[16]; liver, stomach, intestines",0.5 h
same,time of distribution peak,[16]; most tissues,4 h
same,tissue AUC0-72h exposure relative to plasma,"[16]; spleen, lungs, adrenal glands",≈ 200 times plasma
same,time of distribution peak,[16]; testes,24 h
same,content at 72 h post-dose as fraction of distribution peak,[16]; uterus,1/5
same,tissue AUC0-72h exposure relative to plasma,"[16]; uterus, testes, thymus, intestines, thyroid, heart, stomach",20~60 times plasma
same,MTD,[17],1000 mg/kg
same,activation of VEGFR and downstream ERK,[18],significantly inhibited
same,respiratory function and neurological behavior,[19],did not affect
same,maximum tolerated dose (MTD),[20],500 mg/kg
same,IC50,"[21]; FGFR1, read-out: IC50, FGFR1",32.3 nM
same,IC50,"[21]; FGFR2, read-out: IC50, FGFR2",20.4 nM
same,IC50,"[21]; FGFR3, read-out: IC50, FGFR3",23.1 nM
same,IC50,[22],14 nM
same,plasma protein binding rate,[23],97.2±0.266%
same,Q-T interval and corrected Q-T interval,[24],mild prolongation
same,IC50,[25],953 nM
same,RTV ±SD,[26]; 25 mg/kg,7.2±1.0
same,T/C,[26]; 25 mg/kg,45.3%
same,Terminal Tumor Volume,[26]; 25 mg/kg,1424.3±410.0** mm^3
same,RTV ±SD,[26]; 50 mg/kg,2.0±1.1
same,T/C,[26]; 50 mg/kg,12.8%
same,Terminal Tumor Volume,[26]; 50 mg/kg,478.5±307.8** mm^3
same,RTV ±SD,[26]; 75 mg/kg,1.2±0.3
same,T/C,[26]; 75 mg/kg,7.6%
same,Terminal Tumor Volume,[26]; 75 mg/kg,288.9±162.6** mm^3
same,IC50,"[27]; KYSE-150, metabolite comparison, read-out: IC50",1080 nM
same,IC50,"[27]; KYSE-150, read-out: IC50",1080 ± 220 nM
same,IC50,"[27]; KYSE-150, read-out: IC50, proliferation",1080 ± 220 nM
same,IC50,[28],5400 ± 813 nM
same,number of metabolites found in plasma,[29],7
